In patent US8093226B2, “Cytostatic 7-deazapurine nucleosides” (Institute of Organic Chemistry and Biochemistry of the …, priority 2008, dated 2012):

Columns and labels:
Assay type in all cases: cell-based
NCIH23 = test: Test A: Cytostatic Cell Culture Assay (GI50), NCIH23; conditions: Homo sapiens, NCI-H23, 120 h; NCIH23 cells, 5 days, SRB; read-out: G150 Lung NCIH23
Source text: (§1) Test A: Cytostatic Cell Culture Assay (GI50)
(§2) This assay is based on quantification of cell counts by a calorimetric detection of the cell associated proteins. The assay relies on the ability of sulforhodamine B (SRB) to bind to protein components of cells that have been fixed to tissue-culture plates by trichloroacetic acid (TCA). SRB is a bright-pink aminoxanthene dye with two sulfonic groups that bind to basic amino-acid residues under mild acidic conditions, and dissociate under basic conditions. As the binding of SRB is stoichiometric, the amount of dye extracted from stained cells is directly proportional to the cell mass.
(§3) Cell lines: All cell lines are obtained from ATCC (Manassas, Va.). Cultivation media containing Glutanax, and trypsin are purchased from Invitrogen (Carlsbad, Calif.). Doxorubicin, Clofarabine, TCA and SRB are from Sigma-Aldrich (St. Louis, Mo.). Gemcitabine is obtained from Moravek Biochemicals (Brea, Calif.)
(§4) • 1. Trypsinize the sub-confluent cells, count them, and adjust the cell concentrations according to the cell counts listed in Table 1. • 2. Distribute the cells into the 96-well plates in 150 μL of media. Incubate the plates overnight in humidified CO2 incubator at 37° C. • 3. Fix one plate of each cell line with TCA. Discard the cultivation media from the plates by flicking them gently and add 100 μL cold 10% (vol/vol) TCA to each well. Incubate the plates at 4 degree refrigerator for 1 hour. Discard TCA from the plates by flicking them gently. Rinse plates four times in a washing basin containing tap water. Store the plates at room temperature. These plates represent cell counts on day zero. • 4. Prepare a set of medium solutions containing various concentrations of tested compounds by making 5-fold serial dilutions in 96-well plate. Add 50 μL of the diluted compounds per well. Include controls with untreated cells and cells treated with doxorubicin, clofarabine and gemcitabine. • 5. Incubate the plates for 5 days at 37° C. • 6. Fix the plates with TCA. Discard the cultivation media from the plates by flicking them gently and add 100 μL cold 10% (vol/vol) TCA to each well. Incubate the plates at 4 degree refrigerator for 1 hour. Discard TCA from the plates by flicking them gently. Rinse plates four times in a washing basin containing tap water. • 7. Remove excess water by tapping the plates face down, gently on a paper towel. Allow the plates to air-dry at room temperature. • 8. Add 100 μL of 0.057% SRB solution in 1% (vol/vol) acetic acid to each well of the plates fixed with TCA on day zero and five. Leave at room temperature for 30 minutes. • 9. Flick the plates gently to discard SRB. Rinse the plates four times with 1% (vol/vol) Acetic Acid. • 10. Store the plates at 370 incubator to facilitate faster drying. • 11. Once the plates are completely dry, add 200 μL of 10 mM Tris base solution (pH 10.5) to each well. Leave at room temperature for 30 minutes for SRB to solubilize. • 12. Measure the OD at 500 nm in a microplate reader. • 13. Calculate the percentage of cell-growth inhibition using the next formula: % of control cell growth=100×(ODsample−mean ODday0)/(ODneg control−mean ODday0)
(§5) For GI50 determination, plot a dose-response curves between the compound concentration and percent of growth inhibition. GI50 values can be derived by fitting dose-response curves using sigmoidal dose response equation.

Du145 = test: Test A: Cytostatic Cell Culture Assay (GI50), Du145; conditions: Homo sapiens, DU-145, 120 h; Du145 cells, 5 days, SRB; read-out: G150 Prostate Du145
Source text: as §1, §2, §3, §4, §5

Hs578 = test: Test A: Cytostatic Cell Culture Assay (GI50), Hs578; conditions: 120 h; Hs578 cells, 5 days, SRB; read-out: G150 Breast Hs578
Source text: as §1, §2, §3, §4, §5

HCT15 = test: Test A: Cytostatic Cell Culture Assay (GI50), HCT15; conditions: Homo sapiens, HCT-15, 120 h; HCT15 cells, 5 days, SRB; read-out: G150 Colon HCT15
Source text: as §1, §2, §3, §4, §5

A549 = test: Test A: Cytostatic Cell Culture Assay (GI50), A549; conditions: Homo sapiens, 120 h; A549 cells, 5 days, SRB; read-out: G150 Lung A549
Source text: as §1, §2, §3, §4, §5

[1] = test system: Human T-lymphoid cell line CCRF-CEM; test: Cell cycle distribution in human T-lymphoid cells (propidium iodide, flow cytometry); conditions: 72 hours; for Relative change in cell cycle phase compared to untreated control, G1 / Relative change in cell cycle phase compared to untreated control, G2/M / Relative change in cell cycle phase compared to untreated control, S: concentration corresponding to CC50, untreated control = 1
Description: Effects of the Compounds on Cell Cycle Distribution in Human T-Lymphoid Cells
Human T-lymphoid cell line CCRF-CEM is treated with tested compounds for 72 hours at the concentration corresponding to the CC50 value of each compound. At the end of incubation, cells are harvested by centrifugation, washed, and fixed in ethanol. Fixed cells are stained with propidium iodide in a buffer containing RNaseA and the cell cycle distribution analysis is performed by flow cytometry using BD FACSAria instrument. Data are processed using BD FACSDiva software v4.1 and presented as a percentage of analyzed cell population in Phase G1, S, and G2/M. Cell cycle distribution is determined in parallel for untreated and treated cells and relative change for each cell cycle phase is calculated.
The data represent changes in the frequency of each cell cycle phase in treated cells relative to untreated control (the relative fraction of each analyzed cell cycle phase in untreated control has the value of 1).
Primary data are shown in Table 3, with values representing the percentage distribution of each cell cycle phase in the total cell population.

PC3 = test: Test A: Cytostatic Cell Culture Assay (GI50), PC3; conditions: Homo sapiens, PC-3, 120 h; PC3 cells, 5 days, SRB; read-out: G150 Prostate PC3
Source text: as §1, §2, §3, §4, §5

HCT116 = test: Test A: Cytostatic Cell Culture Assay (GI50), HCT116; conditions: Homo sapiens, HCT-116, 120 h; HCT116 cells, 5 days, SRB; read-out: G150 Colon HCT116
Source text: as §1, §2, §3, §4, §5

Row | IC50 (Du145) | IC50 (HCT15) | IC50 (A549) | IC50 (PC3) | IC50 (HCT116) | SMILES | IC50 (NCIH23) | IC50 (Hs578) | Relative change in cell cycle phase compared to untreated control, G1 [1] | Relative change in cell cycle phase compared to untreated control, G2/M [1] | Relative change in cell cycle phase compared to untreated control, S [1] | other results
1 | 7 nM | 20 nM | 88 nM | 91 nM | 78 nM | OC[C@H]1O[C@@H](n2ccc3c(-c4ccco4)ncnc32)[C@H](O)[C@@H]1O [Example 5, 4-(Furan-2-yl)-7-(β-D-ribofuranosyl)-7H-pyrrolo[2,3-d]pyrimidine] | 4200 nM | 49 nM | 0.57 | 1.19 | 1.38 | G1 % ([1]; 0.3 μM, replicate 1): 26.14%; G2/M % ([1]; 0.3 μM, replicate 1): 11.89%; S % ([1]; 0.3 μM, replicate 1): 61.98%; G1 % ([1]; 0.3 μM, replicate 2): 23.61%; G2/M % ([1]; 0.3 μM, replicate 2): 16.41%; S % ([1]; 0.3 μM, replicate 2): 59.99%
2 | 9 nM | 78 nM | 45 nM | 67 nM | 49 nM | OC[C@H]1O[C@@H](n2ccc3c(-c4cccs4)ncnc32)[C@H](O)[C@@H]1O [Example 6, 7-(β-D-Ribofuranosyl)-4-(thiophen-2-yl)-7H-pyrrolo[2,3-d]pyrimidine] | 4100 nM | 101 nM | 0.52 | 1.54 | 1.34 | G1 % ([1]; 0.3 μM, replicate 1): 30.82%; G2/M % ([1]; 0.3 μM, replicate 1): 14.53%; S % ([1]; 0.3 μM, replicate 1): 54.65%; G1 % ([1]; 0.3 μM, replicate 2): 14.66%; G2/M % ([1]; 0.3 μM, replicate 2): 22.05%; S % ([1]; 0.3 μM, replicate 2): 63.29%
3 | 5 nM | 57 nM | 109 nM | 75 nM | 39 nM | OC[C@H]1O[C@@H](n2cc(F)c3c(-c4ccco4)ncnc32)[C@H](O)[C@@H]1O [Example 20, 5-Fluoro-4-(furan-2-yl)-7-(β-D-ribofuranosyl)-7H-pyrrolo[2,3-d]pyrimidine] | 4300 nM | 175 nM | 0.61 | 2.00 | 1.06 | G1 % ([1]; 1.5 μM, replicate 1): 22.32%; G2/M % ([1]; 1.5 μM, replicate 1): 30.19%; S % ([1]; 1.5 μM, replicate 1): 47.49%; G1 % ([1]; 1.5 μM, replicate 2): 28.81%; G2/M % ([1]; 1.5 μM, replicate 2): 25.24%; S % ([1]; 1.5 μM, replicate 2): 45.95%
4 | 9 nM | 18 nM | 61 nM | 83 nM | 9 nM | OC[C@H]1O[C@@H](n2cc(F)c3c(-c4cccs4)ncnc32)[C@H](O)[C@@H]1O [Example 21] | 4700 nM | 132 nM | 0.74 | 1.38 | 1.12 | G1 % ([1]; 0.3 μM, replicate 1): 30.83%; G2/M % ([1]; 0.3 μM, replicate 1): 22.80%; S % ([1]; 0.3 μM, replicate 1): 46.37%; G1 % ([1]; 0.3 μM, replicate 2): 32.73%; G2/M % ([1]; 0.3 μM, replicate 2): 23.53%; S % ([1]; 0.3 μM, replicate 2): 43.74%
5 | 887 nM | 3590 nM | > 20000 nM | 2110 nM | > 20000 nM | OC[C@H]1O[C@@H](n2cc(F)c3c(-c4c[nH]cn4)ncnc32)[C@H](O)[C@@H]1O [Example 26, 5-Fluoro-4-(1H-imidazol-4-yl)-7-(β-D-ribofuranosyl)-7H-pyrrolo[2,3-d]pyrimidine] | 7620 nM | 2110 nM | – | – | – | –
6 | 10 nM | 65 nM | 126 nM | 60 nM | 255 nM | OC[C@H]1O[C@@H](n2cc(F)c3c(-c4cc[nH]c4)ncnc32)[C@H](O)[C@@H]1O [Example 27, 5-Fluoro-7-(β-D-ribofuranosyl)-4-(pyrrol-3-yl)-7H-pyrrolo[2,3-d]pyrimidine] | 1600 nM | 356 nM | – | – | – | –
7 | 138 nM | 290 nM | 2470 nM | 263 nM | 1420 nM | OC[C@H]1O[C@@H](n2cc(Cl)c3c(-c4ccccc4)ncnc32)[C@H](O)[C@@H]1O [Example 28, 5-Chloro-4-phenyl-7-(β-D-ribofuranosyl)-7H-pyrrolo[2,3-d]pyrimidine] | 5020 nM | 13200 nM | – | – | – | –
8 | 10000 nM | 8150 nM | 15200 nM | > 20000 nM | > 20000 nM | OC[C@H]1O[C@@H](n2cc(Cl)c3c(-c4ccco4)ncnc32)[C@H](O)[C@@H]1O [Example 29, 5-Chloro-4-(furan-2-yl)-7-(β-D-ribofuranosyl)-7H-pyrrolo[2,3-d]pyrimidine] | 13200 nM | > 20000 nM | – | – | – | –
9 | 13 nM | 81 nM | 375 nM | 35 nM | 275 nM | OC[C@H]1O[C@@H](n2cc(Cl)c3c(-c4cccs4)ncnc32)[C@H](O)[C@@H]1O [Example 30, 5-Chloro-7-(β-D-ribofuranosyl)-4-(thiophen-2-yl)-7H-pyrrolo[2,3-d]pyrimidine] | 2020 nM | 1640 nM | – | – | – | –
10 | 54 nM | 632 nM | 1050 nM | 1200 nM | 1960 nM | OC[C@H]1O[C@@H](n2cc(Cl)c3c(-c4ccoc4)ncnc32)[C@H](O)[C@@H]1O [Example 31, 5-Chloro-4-(furan-3-yl)-7-(β-D-ribofuranosyl)-7H-pyrrolo[2,3-d]pyrimidine] | 5260 nM | 1580 nM | – | – | – | –
11 | 18 nM | 148 nM | 378 nM | 118 nM | 101 nM | OC[C@H]1O[C@@H](n2cc(Cl)c3c(-c4ccsc4)ncnc32)[C@H](O)[C@@H]1O [Example 32, 5-Chloro-7-(β-D-ribofuranosyl)-4-(thiophen-3-yl)-7H-pyrrolo[2,3-d]pyrimidine] | 4540 nM | 109 nM | – | – | – | –
